Reference: the NIST ThermoML archive (doi:10.1021/acs.jced.8b00975)

Details: Liquid, Vibrating tube method

CCCO [propan-1-ol]
mass density [kg/m3]
Details	100 kPa	5000 kPa	10000 kPa	15000 kPa	20000 kPa	25000 kPa	30000 kPa	35000 kPa
293.15 K	803.17	807.25	811.02	814.54	817.87	821.05	824.15	827.21
303.15 K	795.52	799.83	803.8	807.49	810.95	814.23	817.38	820.48
313.15 K	787.3	791.61	795.67	799.52	803.19	806.72	810.15	813.5

CCO [ethanol]
mass density [kg/m3]
Details	100 kPa	5000 kPa	10000 kPa	15000 kPa	20000 kPa	25000 kPa	30000 kPa	35000 kPa
293.15 K	788.94	793.35	797.51	801.44	805.18	808.74	812.17	815.49
303.15 K	780.83	785.54	789.89	793.92	797.7	801.28	804.72	808.06
313.15 K	772.04	776.85	781.35	785.59	789.62	793.47	797.2	800.84

CCCCCO [pentan-1-ol]
mass density [kg/m3]
Details	100 kPa	5000 kPa	10000 kPa	15000 kPa	20000 kPa	25000 kPa	30000 kPa	35000 kPa
293.15 K	815.25	818.83	822.19	825.37	828.41	831.36	834.24	837.11
303.15 K	808.05	811.93	815.5	818.82	821.92	824.88	827.74	830.55
313.15 K	800.67	804.61	808.28	811.75	815.06	818.26	821.41	824.56

C=C(C)C(=O)OCCN(C)C [2-(dimethylamino)ethyl methylpropenoate]
mass density [kg/m3]
Details	100 kPa	5000 kPa	10000 kPa	15000 kPa	20000 kPa	25000 kPa	30000 kPa	35000 kPa
293.15 K	933.13	936.87	940.43	943.83	947.11	950.3	953.43	956.52
303.15 K	923.03	926.88	930.61	934.24	937.79	941.28	944.74	948.19
313.15 K	914.01	917.99	921.97	925.87	929.71	933.48	937.2	940.87

CCCCO [butan-1-ol]
mass density [kg/m3]
Details	100 kPa	5000 kPa	10000 kPa	15000 kPa	20000 kPa	25000 kPa	30000 kPa	35000 kPa
293.15 K	809.28	813.04	816.54	819.83	822.97	826	828.99	831.99
303.15 K	801.9	806	809.77	813.26	816.52	819.61	822.58	825.48
313.15 K	794.32	798.42	802.22	805.8	809.2	812.49	815.73	818.97

CO [methanol]
mass density [kg/m3]
Details	100 kPa	5000 kPa	10000 kPa	15000 kPa	20000 kPa	25000 kPa	30000 kPa	35000 kPa
293.15 K	791.15	795.92	800.41	804.64	808.67	812.52	816.25	819.89
303.15 K	781.84	786.9	791.61	796.01	800.14	804.05	807.78	811.37
313.15 K	772.35	777.48	782.37	786.99	791.38	795.59	799.69	803.73
